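Exposure lasted 48 hours, with cells grown in 96-well plates and compounds tested at five concentrations. Here, GI50 denotes the concentration required for 50% inhibition of growth.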 Active and inactive are the calls of the source. Cut-off read from the data, not from the text of the source: active = GI50 up to about 1.1 µM and inactive = higher.
Legend:
Experiment in all cases: NCI-60 cell line screen, 48 h
[1] = tested on: 786-0
[2] = tested on: A498
[3] = tested on: A549
[4] = tested on: ACHN
[5] = tested on: BT-549
[6] = tested on: CAKI-1
[7] = tested on: COLO 205
[8] = tested on: DU-145
[9] = tested on: EKVX
[10] = tested on: HCT-116
[11] = tested on: HCT-15
[12] = tested on: HOP-62
[13] = tested on: HOP-92
[14] = tested on: HT-29
[15] = tested on: Hs-578T
[16] = tested on: IGROV-1
[17] = tested on: K562
[18] = tested on: KM12
[19] = tested on: LOX IMVI
[20] = tested on: M14
[21] = tested on: MCF7
[22] = tested on: MDA-MB-231
[23] = tested on: MDA-MB-435
[24] = tested on: MDA-N
[25] = tested on: MOLT-4
[26] = tested on: Malme-3M
[27] = tested on: NCI-H226
[28] = tested on: NCI-H23
[29] = tested on: NCI-H522
[30] = tested on: NCI/ADR-RES
[31] = tested on: OVCAR-3
[32] = tested on: OVCAR-4
[33] = tested on: OVCAR-5
[34] = tested on: OVCAR-8
[35] = tested on: PC-3
[36] = tested on: RPMI-8226
[37] = tested on: RXF 393
[38] = tested on: SF-268
[39] = tested on: SF-295
[40] = tested on: SK-MEL-28
[41] = tested on: SK-MEL-2
[42] = tested on: SK-MEL-5
[43] = tested on: SK-OV-3
[44] = tested on: SN12C
[45] = tested on: SNB-19
[46] = tested on: SNB-75
[47] = tested on: SR
[48] = tested on: SW-620
[49] = tested on: T47D
[50] = tested on: TK-10
[51] = tested on: U-251
[52] = tested on: UACC-257
[53] = tested on: UACC-62
[54] = tested on: UO-31
[55] = tested on: CCRF-CEM
[56] = tested on: HL-60
[57] = tested on: NCI-H460
[58] = tested on: SF-539
[59] = tested on: HCC 2998

Measured: GI50

O=C1c2ccccc2C(=O)c2c(Nc3cc4c5c(ccc6c7ccc8c9c(cc(Nc%10cccc%11c%10C(=O)c%10ccccc%10C%11=O)c(c3c56)c97)-c3ccccc3C8=O)C(=O)c3ccccc3-4)cccc21
> 100 µM: [11]
inactive: [1] 29.2 µM | [2] 26.1 µM | [3] 61.7 µM | [4] 36.1 µM | [5] 46.3 µM | [6] 67 µM | [7] > 100 µM | [8] > 100 µM | [9] 40.6 µM | [10] 88.9 µM | [12] 17 µM | [13] 41.8 µM | [14] > 100 µM | [15] 18.1 µM | [16] 24.6 µM | [17] 75 µM | [18] > 100 µM | [19] 72.1 µM | [20] > 100 µM | [21] 83.2 µM | [22] 31.6 µM | [23] 41.1 µM | [24] > 100 µM | [25] 37.8 µM | [26] > 100 µM | [27] > 100 µM | [28] > 100 µM | [29] 71 µM | [30] 49.1 µM | [31] 41.2 µM | [32] 65.8 µM | [33] > 100 µM | [34] 25 µM | [35] 70.6 µM | [36] > 100 µM | [37] 60.3 µM | [38] 18.8 µM | [39] 44 µM | [40] > 100 µM | [41] 53.6 µM | [42] > 100 µM | [43] 16.6 µM | [44] > 100 µM | [45] 29.9 µM | [46] 17.6 µM | [47] 43.7 µM | [48] > 100 µM | [49] > 100 µM | [50] 29.9 µM | [51] 21.1 µM | [52] > 100 µM | [53] > 100 µM | [54] 84.5 µM

NS(=O)(=O)c1cc(Br)c(/N=N\c2ccc(O)c3ncccc23)c(Br)c1
4.27 µM: [11]
inactive: [1] 23.6 µM | [2] 18.6 µM | [3] 18.5 µM | [4] 4.34 µM | [5] 16.4 µM | [6] 37.9 µM | [55] 3.78 µM | [7] > 100 µM | [8] 47 µM | [9] 32.3 µM | [10] 26.7 µM | [56] 6.04 µM | [12] 25.5 µM | [13] 41.8 µM | [14] > 100 µM | [15] 21.8 µM | [16] 11 µM | [17] 20 µM | [18] 37.8 µM | [19] 20.9 µM | [20] 13.1 µM | [21] 11.5 µM | [22] 51.1 µM | [23] 29.2 µM | [24] 14.6 µM | [25] 3.99 µM | [26] 13.5 µM | [27] 45 µM | [28] 17.9 µM | [57] 25.3 µM | [29] 16.5 µM | [30] 13.2 µM | [31] 54.6 µM | [32] 43.6 µM | [33] 71.6 µM | [34] 35.2 µM | [35] 29.8 µM | [36] 7.26 µM | [37] 46.5 µM | [38] 15.9 µM | [39] 42.6 µM | [58] 25.9 µM | [40] 27.4 µM | [41] 28 µM | [42] 30.7 µM | [43] 47.8 µM | [44] 22.3 µM | [45] 19.5 µM | [46] 21.7 µM | [47] 9.46 µM | [48] 34.8 µM | [49] 39 µM | [50] 22.3 µM | [51] 19.1 µM | [52] 19.6 µM | [53] 21.8 µM | [54] 21.3 µM

C/C=C1/CN2CC[C@@H]3c4ccccc4N4[C@H](C(=O)OC)[C@H]1C[C@H]2[C@]34/C=C/C1=COC[C@@H]2[C@H]1C[C@H]1c3c(c4ccccc4n3C)C[C@@H]2N1C
inactive: [2] 4.59 µM | [3] 4.16 µM | [4] 4.03 µM | [5] 4.32 µM | [6] 4.1 µM | [55] 5.31 µM | [7] 3.4 µM | [8] 5.12 µM | [9] 2.99 µM | [10] 3.89 µM | [12] 3.82 µM | [13] 4.28 µM | [14] 2.77 µM | [15] 4.48 µM | [16] 4.57 µM | [17] 6.15 µM | [19] 4.19 µM | [20] 4.37 µM | [21] 4.55 µM | [22] 4.02 µM | [23] 3.26 µM | [24] 2.32 µM | [25] 4.02 µM | [26] 4.62 µM | [27] 4.5 µM | [28] 4.39 µM | [57] 4.04 µM | [30] 3.46 µM | [31] 4.33 µM | [32] 3.61 µM | [33] 4.33 µM | [34] 4.11 µM | [35] 2.9 µM | [36] 4.09 µM | [37] 4.19 µM | [38] 3.61 µM | [39] 4.45 µM | [58] 4.15 µM | [40] 5.15 µM | [41] 4.33 µM | [42] 3.89 µM | [43] 4.57 µM | [44] 4.33 µM | [45] 3.64 µM | [47] 6.1 µM | [48] 3.83 µM | [49] 4.23 µM | [50] 3.86 µM | [51] 3.72 µM | [52] 4.52 µM | [53] 4.86 µM | [54] 3.99 µM
4.14 µM: [11]
active: [59] 0.345 µM

COC(=O)C1=NN2c3ccccc3CN([C@@H](C)c3ccccc3)C(=O)[C@H]2[C@@H]1C
active: [55] 0.743 µM | [56] 0.769 µM
inactive: [1] 57.7 µM | [2] > 100 µM | [3] 29.4 µM | [4] 39 µM | [5] 24.7 µM | [6] 33.7 µM | [7] 18.1 µM | [8] 47.5 µM | [9] 27.7 µM | [59] 24.7 µM | [10] 33.7 µM | [12] 52.1 µM | [13] 44.7 µM | [14] 31.8 µM | [15] 67.1 µM | [17] 7.13 µM | [18] 31 µM | [19] 35.2 µM | [20] 35.2 µM | [21] 36.3 µM | [22] 83 µM | [23] 32.1 µM | [24] 34.5 µM | [25] 17.3 µM | [26] 38.4 µM | [27] 25.9 µM | [28] 33.1 µM | [57] 38.1 µM | [29] 21.1 µM | [30] 26.1 µM | [31] 27 µM | [32] 28.9 µM | [33] 37.6 µM | [34] 34.7 µM | [35] 23.8 µM | [37] 40.3 µM | [38] 40.3 µM | [39] 35 µM | [58] 40.5 µM | [40] 49.2 µM | [41] 35.9 µM | [42] 12.6 µM | [43] 62.5 µM | [44] 70.6 µM | [45] 74.6 µM | [46] 27.2 µM | [47] 25.5 µM | [48] 43.1 µM | [49] 17 µM | [50] 50.1 µM | [51] 42 µM | [52] 26.9 µM | [53] 40.6 µM | [54] 56 µM
43.9 µM: [11]

— ChEMBL document CHEMBL1201862, “PubChem BioAssay data set” (2004)
